Laboratory results: article PMC8954523 (Pharmaceutics, 2022)
Values after ≈ are worked out from the molar mass of the structure shown. Where two headings read alike, the source gives them in different places.

Test: Equilibrium solubility, shake-flask method
Format: physicochemical
Details: for solubility at 24 h: thermodynamic from solid, read-out: Solubility S2 × 10^6
Method: The standard shake-flask method was applied to determine solubility. The saturated solutions of the studied compound were obtained in glass screw-capped vials with the respective solvent, which were vigorously stirred in an air thermostat. The volumes of water, 1-octanol, n-hexane, and ethanol equaled 7, 2, 7, and 2 mL, respectively. […] After this time period, the saturated solutions stayed in the thermostat during the night, and then the non-dissolved substance was separated from the solution via centrifugation (Biofuge pico, Thermo Electron LED GmbH, Langenselbold, Germany) at the respective temperature for 20 min at 10,000 rpm. […] The experimental results were reported as an average of at least three replicated experiments with an accuracy of 2–4%.
The dissolution thermodynamic parameters on the standard state were determined using mole fraction unitary units. Recalculation of the molar solubility to the mole fraction was made as follows:(1) X2=M1S2/S2(M1−M2)+1000ρ, where S2 is the molar solubility of solute (M), M1 and M2 are the molar masses of solvent and solute, respectively, and ρ (g∙cm^−3) is the density of pure solvents. […] The density values of the pure solvents were used in calculations (Table S1).

For CC(O)(CS(=O)(=O)c1ccc(F)cc1)C(=O)Nc1ccc(C#N)c(C(F)(F)F)c1 (stereo not shown) [BCL, bicalutamide], the “Solubility X2 × 10^4” value (1-octanol, 293.15 K) was 2.23 mole fract, the “Solubility X2” value (1-octanol, 298.15 K) was 2.57 × 10^−4 mole fract and the “Solubility X2 × 10^4” value (1-octanol, 298.15 K) was 2.57 mole fract. For the same molecule, the “Solubility X2 × 10^4” value (1-octanol, 303.15 K) was 3.00 mole fract, the “Solubility X2 × 10^4” value (1-octanol, 308.15 K) was 3.40 mole fract and the “Solubility X2 × 10^4” value (1-octanol, 313.15 K) was 3.95 mole fract. The “Solubility X2 × 10^3” value (ethanol, 293.15 K) was 1.15 mole fract, the “Solubility X2” value (ethanol, 298.15 K) was 1.42 × 10^−3 mole fract and the “Solubility X2 × 10^3” value (ethanol, 298.15 K) was 1.42 mole fract. For the same molecule, the “X2 298.15” value (ethanol, 298.15 K) was 1.42 × 10^−3, the “Solubility X2 × 10^3” value (ethanol, 303.15 K) was 1.74 mole fract and the “Solubility X2 × 10^3” value (ethanol, 308.15 K) was 2.11 mole fract. The “Solubility X2 × 10^3” value (ethanol, 313.15 K) was 2.43 mole fract, the “solubility in ethanol as compared to 1-octanol” value (mole fraction, 298.15 K) was 5.5 fold and the “Solubility X2 × 10^6” value (n-hexane, 293.15 K) was 0.74 mole fract. The “Solubility X2” value (n-hexane, 298.15 K) was 1.07 × 10^−6 mole fract, the “Solubility X2 × 10^6” value (n-hexane, 298.15 K) was 1.07 mole fract and the “X2 298.15” value (n-hexane, 298.15 K) was 1.07 × 10^−6. For the same molecule, the “Solubility X2 × 10^6” value (n-hexane, 303.15 K) was 1.50 mole fract, the “Solubility X2 × 10^6” value (n-hexane, 308.15 K) was 2.04 mole fract and the “Solubility X2 × 10^6” value (n-hexane, 313.15 K) was 2.76 mole fract. The “Solubility X2 × 10^6” value (n-hexane, 318.15 K) was 3.63 mole fract, the solubility at 24 h (n-hexane, organic solvent or mixture, n-hexane, 293.15 K) was 5.67 µM (≈ 2.44 µg/mL) and the solubility at 24 h (n-hexane, organic solvent or mixture, n-hexane, 298.15 K) was 8.12 µM (≈ 3.49 µg/mL). The solubility at 24 h (n-hexane, organic solvent or mixture, n-hexane, 303.15 K) was 11.3 µM (≈ 4.88 µg/mL), the solubility at 24 h (n-hexane, organic solvent or mixture, n-hexane, 308.15 K) was 15.3 µM (≈ 6.59 µg/mL) and the solubility at 24 h (n-hexane, organic solvent or mixture, n-hexane, 313.15 K) was 20.5 µM (≈ 8.83 µg/mL). For the same molecule, the solubility at 24 h (n-hexane, organic solvent or mixture, n-hexane, 318.15 K) was 26.8 µM (≈ 11.5 µg/mL), the “Solubility X2 × 10^7” value (water, 293.15 K) was 1.12 mole fract and the “Solubility X2” value (water, 298.15 K) was 1.47 × 10^−7 mole fract. The “Solubility X2 × 10^7” value (water, 298.15 K) was 1.47 mole fract, the “X2 298.15” value (water, 298.15 K) was 1.47 × 10^−7 and the “Solubility X2 × 10^7” value (water, 303.15 K) was 1.90 mole fract. The “Solubility X2 × 10^7” value (water, 308.15 K) was 2.35 mole fract, the “Solubility X2 × 10^7” value (water, 313.15 K) was 2.97 mole fract and the solubility at 24 h (water, water, 293.15 K) was 6.24 µM (≈ 2.69 µg/mL). It also gave a solubility at 24 h (water, water, 298.15 K) of 8.14 µM (≈ 3.5 µg/mL), a solubility at 24 h (water, water, 303.15 K) of 10.5 µM (≈ 4.53 µg/mL) and a solubility at 24 h (water, water, 308.15 K) of 12.9 µM (≈ 5.57 µg/mL). The solubility at 24 h (water, water, 313.15 K) was 16.4 µM (≈ 7.05 µg/mL).
